Results taken from PubChem BioAssay AID190 (DTP/NCI, 2004).
“And” between values parts separate entries of the source, which are not always exact repeats. Identical values can stand only once. Inconclusive results and toxic doses are left out. How the source made its calls: active means survival T/C of 150% or more; inactive means T/C below 125% in these data.

Test system: AKR/Lw mice, AKR lymphoma ip, median survival T/C
Assay: NCI In Vivo Anticancer Drug Screen. Data for tumor model Lymphoma AKR (Transplanted) (intraperitoneal) in AKR/Lw mice
Conditions: endpoint: median survival time, higher = longer survival
Procedure: The antitumor activity of compounds was measured in mice bearing transplantable tumors. Survival or tumor size were measured and the results are expressed as the measurement made in the treated group (T) divided by the measurement made in the vehicle treated control group (C). The tumor model used in this assay is Lymphoma AKR (Transplanted) (intraperitoneal) in AKR/Lw mice

[1] = dose: 3.75 mg/kg/injection, schedule: Q01DX009 (ip), vehicle: saline
[2] = dose: 7.5 mg/kg/injection, schedule: Q01DX009 (ip), vehicle: saline
[3] = dose: 15.0 mg/kg/injection, schedule: Q01DX009 (ip), vehicle: saline
[4] = dose: 25.0 mg/kg/injection, schedule: Q01DX001 (ip), vehicle: saline
[5] = dose: 100.0 mg/kg/injection, schedule: Q01DX001 (ip), vehicle: saline
[6] = dose: 200.0 mg/kg/injection, schedule: Q01DX001 (ip), vehicle: saline
[7] = dose: 200.0 mg/kg/injection, schedule: Q04DX003 (ip), vehicle: Klucel (hydroxypropylcellulose) (HPC)
[8] = dose: 400.0 mg/kg/injection, schedule: Q04DX003 (ip), vehicle: Klucel (hydroxypropylcellulose) (HPC)
[9] = dose: 100.0 mg/kg/injection, schedule: Q01DX001 (ip), vehicle: Klucel (hydroxypropylcellulose) (HPC)
[10] = dose: 200.0 mg/kg/injection, schedule: Q01DX001 (ip), vehicle: Klucel (hydroxypropylcellulose) (HPC)
[11] = dose: 6.0 mg/kg/injection, schedule: Q01DX001 (ip), vehicle: saline

Measured: T/C

CS(=O)(=O)OCCCCOS(C)(=O)=O
inactive: dose: 0.5 mg/kg/injection, schedule: Q01DX009 (ip), vehicle: Klucel (hydroxypropylcellulose) (HPC) 100 % of control | dose: 0.75 mg/kg/injection, schedule: Q01DX009 (ip), vehicle: saline 112 % of control | dose: 1.0 mg/kg/injection, schedule: Q01DX009 (ip), vehicle: Klucel (hydroxypropylcellulose) (HPC) 120 % of control | dose: 1.5 mg/kg/injection, schedule: Q01DX009 (ip), vehicle: saline 116 % of control | dose: 2.0 mg/kg/injection, schedule: Q01DX009 (ip), vehicle: Klucel (hydroxypropylcellulose) (HPC) 120 % of control | dose: 2.5 mg/kg/injection, schedule: Q01DX009 (ip), vehicle: saline 112 % of control | dose: 3.0 mg/kg/injection, schedule: Q01DX009 (ip), vehicle: saline 108 % of control | [1] 100 % of control and 116 % of control | dose: 4.0 mg/kg/injection, schedule: Q01DX009 (ip), vehicle: Klucel (hydroxypropylcellulose) (HPC) 107 % of control | dose: 5.0 mg/kg/injection, schedule: Q01DX009 (ip), vehicle: Klucel (hydroxypropylcellulose) (HPC) 102 % of control | dose: 5.0 mg/kg/injection, schedule: Q01DX009 (ip), vehicle: saline 96 % of control | [2] 86 % of control and 89 % of control | dose: 8.0 mg/kg/injection, schedule: Q01DX009 (ip), vehicle: Klucel (hydroxypropylcellulose) (HPC) 100 % of control | dose: 8.0 mg/kg/injection, schedule: Q01DX009 (ip), vehicle: saline 115 % of control | dose: 10.0 mg/kg/injection, schedule: Q01DX009 (ip), vehicle: saline 104 % of control | dose: 10.0 mg/kg/injection, schedule: Q04DX003 (ip), vehicle: Klucel (hydroxypropylcellulose) (HPC) 104 % of control | dose: 12.5 mg/kg/injection, schedule: Q01DX001 (ip), vehicle: saline 102 % of control and 110 % of control (2×) | dose: 12.5 mg/kg/injection, schedule: Q01DX009 (ip), vehicle: Klucel (hydroxypropylcellulose) (HPC) 89 % of control | dose: 12.5 mg/kg/injection, schedule: Q01DX009 (ip), vehicle: saline 87 % of control | [3] 105 % of control | dose: 16.0 mg/kg/injection, schedule: Q01DX009 (ip), vehicle: saline 103 % of control | dose: 20.0 mg/kg/injection, schedule: Q01DX009 (ip), vehicle: saline 113 % of control | dose: 20.0 mg/kg/injection, schedule: Q04DX003 (ip), vehicle: Klucel (hydroxypropylcellulose) (HPC) 91 % of control | [4] 97 % of control and 100 % of control and 114 % of control | dose: 25.0 mg/kg/injection, schedule: Q01DX009 (ip), vehicle: Klucel (hydroxypropylcellulose) (HPC) 89 % of control | dose: 25.0 mg/kg/injection, schedule: Q01DX009 (ip), vehicle: saline 89 % of control | dose: 25.0 mg/kg/injection, schedule: Q04DX003 (ip), vehicle: other 108 % of control | dose: 25.0 mg/kg/injection, schedule: Q04DX003 (ip), vehicle: saline 101 % of control | dose: 30.0 mg/kg/injection, schedule: Q01DX009 (ip), vehicle: saline 104 % of control | dose: 37.5 mg/kg/injection, schedule: Q04DX003 (ip), vehicle: saline 90 % of control | dose: 40.0 mg/kg/injection, schedule: Q04DX003 (ip), vehicle: Klucel (hydroxypropylcellulose) (HPC) 100 % of control | dose: 50.0 mg/kg/injection, schedule: Q01DX009 (ip), vehicle: Klucel (hydroxypropylcellulose) (HPC) 89 % of control | dose: 50.0 mg/kg/injection, schedule: Q04DX003 (ip), vehicle: other 104 % of control | dose: 50.0 mg/kg/injection, schedule: Q04DX003 (ip), vehicle: saline 109 % of control | [5] 97 % of control and 105 % of control | dose: 100.0 mg/kg/injection, schedule: Q04DX003 (ip), vehicle: Klucel (hydroxypropylcellulose) (HPC) 100 % of control | dose: 100.0 mg/kg/injection, schedule: Q04DX003 (ip), vehicle: other 91 % of control | dose: 100.0 mg/kg/injection, schedule: Q04DX003 (ip), vehicle: saline 92 % of control | [6] 97 % of control | [7] 105 % of control | [8] 100 % of control | dose: 600.0 mg/kg/injection, schedule: Q01DX001 (ip), vehicle: Klucel (hydroxypropylcellulose) (HPC) 106 % of control

c1ccc(C[N+](Cc2ccccc2)=C2CCCCC2)cc1
inactive: [5] 111 % of control | [6] 114 % of control

CCOC(=O)/C(C(C)=O)=C(/O)c1ccc(OC(F)(F)C(F)Cl)cc1OC(F)(F)C(F)Cl.CCOC(=O)/C(C(C)=O)=C(/O)c1ccc(OC(F)(F)C(F)Cl)cc1OC(F)(F)C(F)Cl.[Cu] (stereo unspecified)
inactive: [9] 100 % of control | [10] 90 % of control

CC(=O)CCN1C(=O)c2ccccc2C1=O
inactive: [9] 105 % of control | [10] 105 % of control | [7] 97 % of control | dose: 400.0 mg/kg/injection, schedule: Q01DX001 (ip), vehicle: Klucel (hydroxypropylcellulose) (HPC) 102 % of control | [8] 89 % of control

CCOC(=O)CCCSCCCC(=O)OCC
inactive: [6] 89 % of control | dose: 400.0 mg/kg/injection, schedule: Q01DX001 (ip), vehicle: saline 95 % of control

S=P(N1CC1)(N1CC1)N1CC1
inactive: dose: 0.1 mg/kg/injection, schedule: Q01DX009 (ip), vehicle: saline 110 % of control | dose: 0.25 mg/kg/injection, schedule: Q01DX009 (ip), vehicle: saline 87 % of control | dose: 0.5 mg/kg/injection, schedule: Q01DX009 (ip), vehicle: saline 90 % of control | dose: 0.5 mg/kg/injection, schedule: Q04DX003 (ip), vehicle: saline 117 % of control | dose: 1.0 mg/kg/injection, schedule: Q01DX009 (ip), vehicle: saline 108 % of control and 112 % of control and 117 % of control | dose: 1.0 mg/kg/injection, schedule: Q04DX003 (ip), vehicle: saline 120 % of control | dose: 1.2 mg/kg/injection, schedule: Q04DX003 (ip), vehicle: saline 100 % of control | dose: 1.5 mg/kg/injection, schedule: Q01DX001 (ip), vehicle: saline 106 % of control | dose: 2.0 mg/kg/injection, schedule: Q01DX009 (ip), vehicle: saline 111 % of control | dose: 2.5 mg/kg/injection, schedule: Q01DX001 (ip), vehicle: saline 104 % of control | dose: 2.5 mg/kg/injection, schedule: Q04DX003 (ip), vehicle: saline 87 % of control and 112 % of control and 117 % of control | dose: 3.0 mg/kg/injection, schedule: Q01DX001 (ip), vehicle: saline 109 % of control | dose: 3.0 mg/kg/injection, schedule: Q04DX003 (ip), vehicle: saline 122 % of control | [1] 116 % of control | dose: 5.0 mg/kg/injection, schedule: Q01DX001 (ip), vehicle: saline 95 % of control and 100 % of control and 103 % of control | [11] 104 % of control and 106 % of control | dose: 6.2 mg/kg/injection, schedule: Q01DX001 (ip), vehicle: saline 118 % of control | dose: 6.25 mg/kg/injection, schedule: Q01DX001 (ip), vehicle: saline 123 % of control | dose: 7.5 mg/kg/injection, schedule: Q01DX001 (ip), vehicle: saline 102 % of control and 116 % of control | [2] 105 % of control | dose: 10.0 mg/kg/injection, schedule: Q01DX001 (ip), vehicle: saline 111 % of control | dose: 10.0 mg/kg/injection, schedule: Q04DX003 (ip), vehicle: saline 87 % of control | [3] 88 % of control | dose: 16.0 mg/kg/injection, schedule: Q04DX003 (ip), vehicle: saline 97 % of control | dose: 12.0 micrograms/kg/injection, schedule: Q01DX009 (ip), vehicle: saline 111 % of control | dose: 12.5 micrograms/kg/injection, schedule: Q01DX009 (ip), vehicle: saline 102 % of control | dose: 25.0 micrograms/kg/injection, schedule: Q01DX009 (ip), vehicle: saline 100 % of control and 111 % of control | dose: 50.0 micrograms/kg/injection, schedule: Q01DX009 (ip), vehicle: saline 105 % of control | dose: 100.0 micrograms/kg/injection, schedule: Q01DX009 (ip), vehicle: saline 94 % of control and 108 % of control | dose: 200.0 micrograms/kg/injection, schedule: Q01DX009 (ip), vehicle: saline 102 % of control

CN(C)CCCc1c2ccccc2nc2ccc(Cl)cc12
inactive: [11] 100 % of control | dose: 12.0 mg/kg/injection, schedule: Q01DX001 (ip), vehicle: saline 103 % of control | [4] 109 % of control
